# Results as given in ChEMBL document CHEMBL1201862, “PubChem BioAssay data set” (2004).
#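 Growth conditions: 96-well plates. Treatment: test compound, 48 hours, 5 concentrations. Analysis: linear interpolation between bracketing concentrations; unreached endpoints set to highest concentration. GI50 marks 50% less growth.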 The source made the active and inactive calls. Cut-off read from the data, not from the text of the source: active = GI50 up to about 1.1 µM and inactive = higher.
# Experiments:
# Assay in all cases: growth of human tumour cells (NCI), 48 h
# 786-0 = test system: 786-0
# A498 = test system: A498
# A549 = test system: A549
# ACHN = test system: ACHN
# BT-549 = test system: BT-549
# CAKI-1 = test system: CAKI-1
# COLO 205 = test system: COLO 205
# DU-145 = test system: DU-145
# EKVX = test system: EKVX
# HCC 2998 = test system: HCC 2998
# HCT-116 = test system: HCT-116
# HCT-15 = test system: HCT-15
# HL-60 = test system: HL-60
# HOP-62 = test system: HOP-62
# HOP-92 = test system: HOP-92
# HT-29 = test system: HT-29
# Hs-578T = test system: Hs-578T
# IGROV-1 = test system: IGROV-1
# K562 = test system: K562
# KM12 = test system: KM12
# LOX IMVI = test system: LOX IMVI
# M14 = test system: M14
# MCF7 = test system: MCF7
# MDA-MB-231 = test system: MDA-MB-231
# MDA-MB-435 = test system: MDA-MB-435
# MOLT-4 = test system: MOLT-4
# Malme-3M = test system: Malme-3M
# NCI-H226 = test system: NCI-H226
# NCI-H23 = test system: NCI-H23
# NCI-H460 = test system: NCI-H460
# NCI-H522 = test system: NCI-H522
# NCI/ADR-RES = test system: NCI/ADR-RES
# OVCAR-3 = test system: OVCAR-3
# OVCAR-4 = test system: OVCAR-4
# OVCAR-5 = test system: OVCAR-5
# OVCAR-8 = test system: OVCAR-8
# PC-3 = test system: PC-3
# RPMI-8226 = test system: RPMI-8226
# RXF 393 = test system: RXF 393
# SF-268 = test system: SF-268
# SF-295 = test system: SF-295
# SF-539 = test system: SF-539
# SK-MEL-28 = test system: SK-MEL-28
# SK-MEL-2 = test system: SK-MEL-2
# SK-MEL-5 = test system: SK-MEL-5
# SK-OV-3 = test system: SK-OV-3
# SN12C = test system: SN12C
# SNB-19 = test system: SNB-19
# SNB-75 = test system: SNB-75
# SR = test system: SR
# SW-620 = test system: SW-620
# T47D = test system: T47D
# TK-10 = test system: TK-10
# U-251 = test system: U-251
# UACC-257 = test system: UACC-257
# UACC-62 = test system: UACC-62
# UO-31 = test system: UO-31
# CCRF-CEM = test system: CCRF-CEM
# MDA-N = test system: MDA-N
structure (smiles),measurement,setting,value
CC(Oc1ccc(Cl)cc1Cl)C(=O)NN1C(=O)CC(=O)N(c2ccccc2)C1=S (stereo not given),GI50,786-0,60.3 µM (inactive)
same,GI50,A498,26.9 µM (inactive)
same,GI50,A549,47.6 µM (inactive)
same,GI50,ACHN,48.1 µM (inactive)
same,GI50,BT-549,59.6 µM (inactive)
same,GI50,CAKI-1,53.6 µM (inactive)
same,GI50,COLO 205,33.7 µM (inactive)
same,GI50,DU-145,53.3 µM (inactive)
same,GI50,EKVX,69.5 µM (inactive)
same,GI50,HCC 2998,63.4 µM (inactive)
same,GI50,HCT-116,35.5 µM (inactive)
same,GI50,HCT-15,38.2 µM
same,GI50,HL-60,0.527 µM (active)
same,GI50,HOP-62,56.2 µM (inactive)
same,GI50,HOP-92,24.9 µM (inactive)
same,GI50,HT-29,70.1 µM (inactive)
same,GI50,Hs-578T,> 100 µM (inactive)
same,GI50,IGROV-1,55.3 µM (inactive)
same,GI50,K562,41.7 µM (inactive)
same,GI50,KM12,18.1 µM (inactive)
same,GI50,LOX IMVI,55 µM (inactive)
same,GI50,M14,73.3 µM (inactive)
same,GI50,MCF7,35.5 µM (inactive)
same,GI50,MDA-MB-231,65.9 µM (inactive)
same,GI50,MDA-MB-435,41.9 µM (inactive)
same,GI50,MOLT-4,46.3 µM (inactive)
same,GI50,Malme-3M,> 100 µM (inactive)
same,GI50,NCI-H226,37.8 µM (inactive)
same,GI50,NCI-H23,37.2 µM (inactive)
same,GI50,NCI-H460,62.8 µM (inactive)
same,GI50,NCI-H522,31.5 µM (inactive)
same,GI50,NCI/ADR-RES,39.9 µM (inactive)
same,GI50,OVCAR-3,42.5 µM (inactive)
same,GI50,OVCAR-4,45.8 µM (inactive)
same,GI50,OVCAR-5,> 100 µM (inactive)
same,GI50,OVCAR-8,50.2 µM (inactive)
same,GI50,PC-3,40.5 µM (inactive)
same,GI50,RPMI-8226,30.7 µM (inactive)
same,GI50,RXF 393,41 µM (inactive)
same,GI50,SF-268,95.1 µM (inactive)
same,GI50,SF-295,43.4 µM (inactive)
same,GI50,SF-539,> 100 µM (inactive)
same,GI50,SK-MEL-28,98.6 µM (inactive)
same,GI50,SK-MEL-2,42.2 µM (inactive)
same,GI50,SK-MEL-5,47.4 µM (inactive)
same,GI50,SK-OV-3,> 100 µM (inactive)
same,GI50,SN12C,52.4 µM (inactive)
same,GI50,SNB-19,66.4 µM (inactive)
same,GI50,SNB-75,54.1 µM (inactive)
same,GI50,SR,4.67 µM (inactive)
same,GI50,SW-620,53.1 µM (inactive)
same,GI50,T47D,43.2 µM (inactive)
same,GI50,TK-10,> 100 µM (inactive)
same,GI50,U-251,41.9 µM (inactive)
same,GI50,UACC-257,74.6 µM (inactive)
same,GI50,UACC-62,37.5 µM (inactive)
same,GI50,UO-31,64.7 µM (inactive)
Cc1ccc(/C=N/n2c(Cc3ccccc3)n[nH]c2=O)cc1,GI50,786-0,80.9 µM (inactive)
same,GI50,A498,> 100 µM (inactive)
same,GI50,A549,> 100 µM (inactive)
same,GI50,ACHN,> 100 µM (inactive)
same,GI50,BT-549,19.8 µM (inactive)
same,GI50,CAKI-1,28.6 µM (inactive)
same,GI50,CCRF-CEM,> 100 µM (inactive)
same,GI50,COLO 205,> 100 µM (inactive)
same,GI50,DU-145,> 100 µM (inactive)
same,GI50,EKVX,> 100 µM (inactive)
same,GI50,HCC 2998,> 100 µM (inactive)
same,GI50,HCT-116,> 100 µM (inactive)
same,GI50,HCT-15,> 100 µM
same,GI50,HL-60,> 100 µM (inactive)
same,GI50,HOP-62,37.2 µM (inactive)
same,GI50,HOP-92,37 µM (inactive)
same,GI50,HT-29,> 100 µM (inactive)
same,GI50,Hs-578T,65.2 µM (inactive)
same,GI50,IGROV-1,> 100 µM (inactive)
same,GI50,K562,> 100 µM (inactive)
same,GI50,KM12,> 100 µM (inactive)
same,GI50,LOX IMVI,> 100 µM (inactive)
same,GI50,M14,> 100 µM (inactive)
same,GI50,MDA-MB-231,> 100 µM (inactive)
same,GI50,MDA-N,> 100 µM (inactive)
same,GI50,MOLT-4,> 100 µM (inactive)
same,GI50,Malme-3M,> 100 µM (inactive)
same,GI50,NCI-H226,> 100 µM (inactive)
same,GI50,NCI-H23,> 100 µM (inactive)
same,GI50,NCI-H460,> 100 µM (inactive)
same,GI50,NCI-H522,> 100 µM (inactive)
same,GI50,NCI/ADR-RES,> 100 µM (inactive)
same,GI50,OVCAR-3,> 100 µM (inactive)
same,GI50,OVCAR-4,> 100 µM (inactive)
same,GI50,OVCAR-5,> 100 µM (inactive)
same,GI50,OVCAR-8,> 100 µM (inactive)
same,GI50,PC-3,> 100 µM (inactive)
same,GI50,RPMI-8226,> 100 µM (inactive)
same,GI50,RXF 393,> 100 µM (inactive)
same,GI50,SF-268,> 100 µM (inactive)
same,GI50,SF-295,35.9 µM (inactive)
same,GI50,SF-539,> 100 µM (inactive)
same,GI50,SK-MEL-28,> 100 µM (inactive)
same,GI50,SK-MEL-5,> 100 µM (inactive)
same,GI50,SN12C,> 100 µM (inactive)
same,GI50,SNB-19,> 100 µM (inactive)
same,GI50,SNB-75,40.2 µM (inactive)
same,GI50,SR,> 100 µM (inactive)
same,GI50,SW-620,> 100 µM (inactive)
same,GI50,T47D,> 100 µM (inactive)
same,GI50,TK-10,> 100 µM (inactive)
same,GI50,UACC-257,> 100 µM (inactive)
same,GI50,UO-31,> 100 µM (inactive)
CCOC(=O)C1(N)CCc2[nH][nH]c(=O)c2C1 (stereo not given),GI50,786-0,> 100 µM (inactive)
same,GI50,A498,> 100 µM (inactive)
same,GI50,A549,> 100 µM (inactive)
same,GI50,ACHN,> 100 µM (inactive)
same,GI50,BT-549,> 100 µM (inactive)
same,GI50,CAKI-1,> 100 µM (inactive)
same,GI50,CCRF-CEM,> 100 µM (inactive)
same,GI50,COLO 205,> 100 µM (inactive)
same,GI50,EKVX,> 100 µM (inactive)
same,GI50,HCC 2998,> 100 µM (inactive)
same,GI50,HCT-116,> 100 µM (inactive)
same,GI50,HCT-15,> 100 µM
same,GI50,HL-60,> 100 µM (inactive)
same,GI50,HOP-62,> 100 µM (inactive)
same,GI50,HOP-92,> 100 µM (inactive)
same,GI50,HT-29,> 100 µM (inactive)
same,GI50,Hs-578T,> 100 µM (inactive)
same,GI50,IGROV-1,> 100 µM (inactive)
same,GI50,K562,> 100 µM (inactive)
same,GI50,KM12,> 100 µM (inactive)
same,GI50,LOX IMVI,> 100 µM (inactive)
same,GI50,M14,> 100 µM (inactive)
same,GI50,MCF7,> 100 µM (inactive)
same,GI50,MDA-MB-231,> 100 µM (inactive)
same,GI50,MDA-MB-435,> 100 µM (inactive)
same,GI50,MDA-N,> 100 µM (inactive)
same,GI50,MOLT-4,> 100 µM (inactive)
same,GI50,Malme-3M,> 100 µM (inactive)
same,GI50,NCI-H226,> 100 µM (inactive)
same,GI50,NCI-H23,> 100 µM (inactive)
same,GI50,NCI-H460,> 100 µM (inactive)
same,GI50,NCI-H522,> 100 µM (inactive)
same,GI50,NCI/ADR-RES,> 100 µM (inactive)
same,GI50,OVCAR-3,> 100 µM (inactive)
same,GI50,OVCAR-4,> 100 µM (inactive)
same,GI50,OVCAR-5,> 100 µM (inactive)
same,GI50,OVCAR-8,> 100 µM (inactive)
same,GI50,PC-3,> 100 µM (inactive)
same,GI50,RPMI-8226,> 100 µM (inactive)
same,GI50,SF-295,> 100 µM (inactive)
same,GI50,SF-539,> 100 µM (inactive)
same,GI50,SK-MEL-28,> 100 µM (inactive)
same,GI50,SK-MEL-2,> 100 µM (inactive)
same,GI50,SK-MEL-5,> 100 µM (inactive)
same,GI50,SK-OV-3,> 100 µM (inactive)
same,GI50,SNB-19,> 100 µM (inactive)
same,GI50,SNB-75,> 100 µM (inactive)
same,GI50,SR,> 100 µM (inactive)
same,GI50,SW-620,> 100 µM (inactive)
same,GI50,T47D,> 100 µM (inactive)
same,GI50,TK-10,> 100 µM (inactive)
same,GI50,U-251,> 100 µM (inactive)
same,GI50,UACC-257,> 100 µM (inactive)
same,GI50,UACC-62,> 100 µM (inactive)
same,GI50,UO-31,> 100 µM (inactive)
